Assay results from patent US4241184A, “Secondary alcohol dehydrogenase enzyme and use thereof” (priority 1979, dated 1980).
Read-outs that look alike come from different tables or passages of the source.

Key:
[1] = system: Methylobacter vinelandii (CRL M5Y NRRL B-11,218); experiment: Microbiological oxidation of cyclic hydrocarbons by methane-grown washed cells; type: cell-based
Description: Methylobacter vinelandii (CRL M5Y NRRL B-11,218) was aerobically grown in a methane-containing nutrient medium in the manner described in Example 1 and the methane-grown washed cells were contacted under aerobic conditions with cyclohexane, benzene and toluene.

[2] = system: P(40) particulate fraction of Methylosinus sp. (CRL-15, NRRL B-11,202); experiment: Stoichiometry of propylene epoxidation and methane hydroxylation by P(40) fraction; type: biochemical; details: 5.0 μmoles substrate
Procedure: The particulate P(40) fraction of Methylosinus sp. (CRL-15, NRRL B-11,202) was used to determine the stoichiometry of hydroxylation and epoxidation reactions. The stoichiometry of methane or propylene-dependant NADH oxidation, oxygen consumption and product formation was approximately 1:1:1 Table XIV. This is consistent with methane or propylene oxygenation being catalyzed by a mono-oxygenase.
^a Under identical condition of reaction, the estimation of NADH
oxidized was carried out spectrophotometrically, the estimation of oxygen
consumed was measured polarographically, and estimation of product formed
was carried out by gas chromatography.

[3] = system: cell-free particulate fractions derived from the methylotrophic microorganisms; experiment: Conversion of C3-C6 n-alkanes to sec. alcohols by cell-free particulate fractions: inhibitors and electron donors; type: biochemical
Description: The conditions for preparing the cell suspensions or the cell-free particulate fractions from methane-grown methylotroph microorganisms is the same as described above. […] Tables XXV and XXVI show the conversion of C3 -C6 n-alkanes to the corresponding secondary alcohols using cell suspensions and cell-free particulate fractions, respectively, of methane-grown methylotroph microorganisms.

[4] = system: P(40) particulate fraction of Methylosinus sp. (CRL-15, NRRL B-11,202); experiment: Oxidation of n-alkenes and n-alkanes by P(40) particulate fraction; type: biochemical; details: for Rate of Product Formation: substrate oxidized to its epoxide or alcohol, 30° C.
[5] = system: Methylosinus trichosporium OB3b (NRRL B-11,196); experiment: Stoichiometry of the epoxidation of propylene by a cell-suspension; type: cell-based; details: 3 min., 3.1 mg. protein, 3.6 μmoles propylene
Procedure: As a comparison the stoichiometry of the epoxidation of propylene by a cell-suspension of Methylosinus trichosporium OB3b (NRRL B-11,196) was determined as follows. The reaction mixture (3.0 ml.) contained 0.05 M sodium phosphate buffer, pH 7.0 and 3.6 μmoles of propylene. The reaction was initiated by the injection of 0.1 ml. of cell-suspension (3.1 mg. protein). A correction was made for the endogenous consumption of oxygen. The amount of oxygen consumed during the reaction (3 min.) was determined polarographically with a Clark oxygen electrode. The propylene consumed and the propylene oxide formed was estimated by gas chromatography. The propylene consumed was 0.29 μmoles, the oxygen consumed was 0.30 μmoles and the propylene oxide formed was 0.28 μmoles.

[6] = system: secondary alcohol dehydrogenase (SADH); experiment: Purified secondary alcohol dehydrogenase activity (formation of reduced NAD); type: biochemical, Pseudomonas sp. ATCC 21439
Procedure: Secondary alcohol dehydrogenase (SADH) from an obligate methanol utilizer, Pseudomonas sp. ATCC 21439 was purified as follows. […] 0.05 M sodium phosphate buffer, pH 7.0 with 0.5 mM dithiothretol (buffer A) and were disrupted sonically (5×1 min.). The crude extract was separated by centrifugation. The crude extract was heat-treated at 50° C. in a water bath for 10 minutes. The resulting precipitate was removed by centrifugation. To the supernatant solution, 25 ml of protamine sulfate solution (2% solution in 0.1 M Tris base) was added dropwise with continuous stirring. After standing for 30 minutes, the extract was centrifuged. The supernatant solution was fractionated with solid ammonium sulfate. The material precipitating between 30 and 60% saturation was collected and was dialized overnight against buffer A. The The dialized material was applied to a DEAE-cellulose column (3 cm by 35 cm) that had been equilibrated with buffer A. The secondary alcohol dehydrogenase activity was eluted in the void volume. This DEAE-cellulose eluate was concentrated by ammonium sulfate fractionation. Material precipitating between 30 and 50% ammonium sulfate saturation was collected by centrifugation and dialyzed overnight against A. This fraction was further washed and filtered through an Amicon unit with XM 50 membrane. The concentrated fraction (6 ml) inside the Amicon unit was applied to an Affi-Gel Blue column (0.8 cm×18 cm) which had been equilibrated with buffer A for affinity chromatography. The column was washed overnight with buffer A (0.18 ml./min.) and then was eluted with buffer A containing 5 mM NAD. Each 1 ml. fraction was collected.
The purified secondary alcohol dehydrogenase enzyme (SADH) may be used directly for converting C3 -C6 secondary alcohols to the corresponding methyl ketones by the procedures described above; however, a source of NAD^+ must be added to the reaction medium. One can determine the NAD-linked secondary alcohol dehydrogenase activity with a fluorescence spectrophotometer (Perkin Elmer, Model MPF 44A) by following the formation of reduced NAD (Ex 340 nm, Em 460 nm). The assay system (3 ml.) will typically contain: sodium phosphate buffer pH 7.0, 150 μmol; NAD 1.0 μmol; a given amount of enzyme preparation; and 20 μmol secondary alcohol. The reaction is started by the addition of secondary alcohol. One unit of SADH enzyme activity represents the reduction of one nmole NAD per minute.
The effect of metal-chelating agents and thioreagents on the activity of the purified SADH enzyme were studied. […] The possibility of ethanol or n-propanol as an inhibitor was studied.

[7] = system: cell-free extracts of strain ATCC-21439
Procedure: The reaction mixtures 3 ml (1.0 mg protein) were incubated at 30°
C. for 10 min. (exp. 1) and for 20 min. (exp. 2) in the presence of 1.0
^a Determined gas chromatographically.
^b Determined fluorescence spectrophotometrically. Endogenous
consumption of NAD was corrected.

[8] = system: secondary alcohol dehydrogenase; experiment: Purified yeast secondary alcohol dehydrogenase: substrates, electron acceptors, inhibitors, stoichiometry; type: biochemical, Pichia sp. NRRL Y-11,328
Procedure: Large scale cultures of Pichia sp. NRRL Y-11,328 were grown with aeration at 30° C. in a 14-liter New Brunswick f fermentor in a mineral salt medium containing methanol (0.4%, v/v) as the sole carbon source. The cells (200 g., wet weight) were suspended in […] sodium phosphate buffer, pH 7.0, containing 1 mM dithiothreitol (buffer A), and crude extracts were prepared as described previously. To the crude extracts, 18 ml. of protamine sulfate solution [2% solution in 0.1 M tris (hydroxymethyl) aminomethane (tris) base] was added dropwise with continuous stirring. After standing for 30 min., the extracts were centrifuged at 20,000×g. for 60 min. The supernatant solution was fractionated with solid ammonium sulfate. Extracts were brought to 50% of saturation with respect to ammonium sulfate by addition of 313 g. of the salt per liter of extract. Precipitated proteins was removed by centrifugation, and 137 g. of ammonium sulfate was added per liter of the supernatant liquid to bring it to 70% of saturation. Material precipitating between 50 and 70% of saturation was collected by centrifugation and dissolved in buffer A. This preparation was dialyzed overnight against buffer A, and the dialyzed material was applied to a DEAE-cellulose column (5×40 cm) that had been equilibrated with buffer A. The sample was washed with 200 ml. of buffer A and eluted with 2 liters of buffer A that contained NaCl in a linear gradient running from a concentration of 0 to 0.5 M. Fractions of 15 ml. were collected. Fractions containing secondary alcohol dehydrogenase activity were pooled and were termed DEAE-cellulose eluate. The DEAE-cellulose eluate was concentrated by ammonium sulfate fractionation.
Secondary alcohol dehydrogenase activity was measured spectrophotometrically at 340 nm with a NAD^+ as an electron acceptor. The reaction mixture, in a total 3.0 ml., contained 50 mM phosphate buffer, pH 8.0, 5μ moles NAD^+, crude extracts, and subtrate. The reactions were started by addition of 100 μl of 0.1 M substrate and the rate of NAD^+ reduction was measured. Protein concentration was determined by the method of Lowry et al.
The substrate specificity of the purified secondary alcohol dehydrogenase was examined spectrophotometrically.

[9] = Oxidation of methane and lower alkenes by washed cell suspensions of methane-grown methylotrophic strains; type: cell-based; details: methane-grown methylotrophic microorganisms
Procedure: The isolates had been maintained on agar plates under an atmosphere of methane and air having a 1:1 v/v gas ratio which had been transferred every two weeks. The gaseous phase of the inoculated flasks was then replaced with a gas mixture comprised of methane and air having a ratio of 1:1 on a v/v basis.
The cells were harvested by centrifugation at 10,000×g. at 4° C. for 30 minutes. The cell pellet was washed twice with a 0.15 M phosphate buffer at a pH of 7.0 (containing 0.002 M MgCl2). The washed cells were then suspended in a 0.15 M phosphate buffer at pH 7.0.
A 0.5 ml sample of each washed cell suspension (2 mg cells) was put into 10 ml vials at 4° C. which were sealed with a rubber cap. The gaseous phase of the vials was removed with vacuum and then was replaced with a gas mixture of the oxidative substrate (e.g., methane) and oxygen at a 1:1 v/v ratio. The vials were then incubated at 30° C. on a rotary shaker at 300 rpm. Samples of product (3 μl) were withdrawn periodically with a microsyringe and the products were analyzed by gas chromatography (ionization flame detector column).
The newly discovered and isolated microorganism strains of the present invention were each grown aerobically in the presence of methane in the manner described above. […]

[10] = system: P(40) particulate fraction of Methylosinus sp. (CRL-15, NRRL B-11,202); experiment: Effect of inhibitors on propylene epoxidation and methane hydroxylation by P(40) fraction; type: biochemical; details: inhibitor 10^-3 M
Procedure: The oxidation of methane and propylene by particulate [(P)40 and(P)80] fractions and soluble [S(80)] fraction was measured at 30° C. by estimating the production of methanol and propylene oxide, respectively. The reaction mixtures contained in 1.0 ml: 150 mM potassium phosphate buffer, pH 7.0 containing 5 mM MgCl2, 0.6 ml; 10 μmoles NADH, and cellular fraction.
Reaction mixtures were contained in 10 ml vials at 4° C. Vials were sealed with rubber caps. The gaseous phase in the vials was removed using vacuum and then was replaced with a gas mixture of methane or propylene and oxygen at a 1:1, v/v ratio. Oxidation of other gaseous n-alkanes and n-alkenes was examined as described above. For liquid substrates, 10 μl of substrate was used directly. Vials were then incubated at 30° C. on a rotary shaker at 200 RPM.
It has been reported that the oxidation of methane by cell suspensions of methane-utilizing bacteria was inhibited by various metal-binding or metal-chelating agents (Patel et al., J. Bacteriol. 126: 1017-1019 (1976)). […] (CRL-15, NRRL B-11,202) was examined.

[11] = system: Methylobacterium organophilum (CRL 26, NRRL B-11,222); experiment: Effect of inhibitors on epoxidation of propylene and hydroxylation of methane, cell-containing enzyme preparation; type: cell-based; details: NRRLB11, inhibitor 1 mM, 1 hour at 30° C.
[12] = system: Methylococcus capsulatus (CRL Ml, NRRL B-11,219); experiment: as above; type: cell-based; details: Methylococcus capsulatus, NRRLB11, inhibitor 1 mM, 1 hour at 30° C.
[13] = system: methanol-grown Methylococcus capsulatus CRL M1 (NRRL B-11,219); experiment: Effect of metal-chelating agents and other inhibitors on production of 2-butanone by cell suspensions; type: cell-based; details: NRRLB11, read-out: Inhibition (%) of production of 2-butanone, 1 mM
[14] = system: Methylosinus trichosporium OB3b (NRRL B-11,196); experiment: Effect of inhibitors on epoxidation of propylene and hydroxylation of methane, cell-containing enzyme preparation; type: cell-based; details: NRRLB11, inhibitor 1 mM, 1 hour at 30° C.
[15] = system: cell suspensions of C1 -utilizers; experiment: Optimal conditions and inhibition of 2-butanone production from 2-butanol by cell suspensions; type: cell-based
Description: The following summarizes tests conducted on the optimal conditions for the production of methyl ketones from C3 -C6 sec. alcohols.

[16] = read-out: % Inhibition, Epoxidation
[17] = read-out: % Inhibition, Hydroxylation

SMILES: Cc1ccccc1 [toluene]
- oxidative conversion rate of cyclic hydrocarbon (cyclohexane to cyclohexanol) [1]: no oxidative conversion was detected

SMILES: C=CC [Propylene]
- NADH Oxidized [2]: 5.0 µmol
- O2 Consumed [2]: 4.8 µmol
- Product formed [2]: 4.5 µmol
- inhibition of the conversion of the n-alkanes to the sec. alcohols [3]: inhibit
- Propylene Oxide Produced ([4]; substrate competition, gas phase as labelled): 4.3 μmoles/hr/mg. protein
- Rate of Product Formation [4]: 4.1 μ moles/hr/mg of protein
- oxygen consumed [5]: 0.30 µmol
- propylene consumed [5]: 0.29 µmol
- propylene oxide formed [5]: 0.28 µmol

SMILES: c1ccccc1 [benzene]
- oxidative conversion rate of cyclic hydrocarbon (cyclohexane to cyclohexanol) [1]: no oxidative conversion was detected

SMILES: CCC(C)O (stereo not drawn) [2-butanol]
- substrate specificity of purified SADH [6]: highest
- Km ([6]; read-out: Km values): 250 µM
- 2-Butanol Consumed ([7]; experiment 1, 10 min.): 260 nmol
- 2-Butanol Consumed ([7]; experiment 2, 20 min.): 530 nmol
- NAD Consumed ([7]; experiment 2, 20 min.): 540 nmol
- NAD^+ Reduced [8]: 5.9 µmol
- Product formed [8]: 5.7 µmol
- oxidation by the purified secondary alcohol dehydrogenase [8]: catalyzed the oxidation

SMILES: C=CCCC [1-Pentene]
- Rate of Product Formation [4]: 0 μ moles/hr/mg of protein
- epoxide product from the substrate [9]: did not produce any detectable epoxide product

SMILES: C=CCCCC [hexene-1]
- epoxide product from the substrate [9]: did not produce any detectable epoxide product

SMILES: C1CCCCC1 [Cyclohexane]
- oxidative conversion rate of cyclic hydrocarbon (cyclohexane to cyclohexanol) [1]: 1.5 μmoles/2 hr./mg. protein

SMILES: c1cnc2c(c1)ccc1cccnc12 [1,10-Phenanthroline]
- % inhibition of SADH activity ([6]; purified SADH, each inhibitor 1 mM, measured spectrofluorometrically): 95%
- % Inhibition, Methane-Hydroxylating Activity [10]: 90%
- % Inhibition, Propylene-Epoxidizing Activity [10]: 93%
- inhibition of the conversion of the n-alkanes to the sec. alcohols [3]: inhibited
- inhibition at 1000 µM [11, 16]: 90%
- inhibition at 1000 µM [11, 17]: 90%
- inhibition at 1000 µM [12, 16]: 95%
- inhibition at 1000 µM [12, 17]: 95%
- inhibition at 1000 µM [13]: 95%
- inhibition at 1000 µM [14, 16]: 90%
- inhibition at 1000 µM [14, 17]: 92%
- inhibition of secondary alcohol dehydrogenase activity [8]: strongly inhibited
- inhibition of production of 2-butanone from 2-butanol by cell suspensions of the strains tested [15]: inhibited
